{"source": "patent EP0574185B1", "about": "“PGE1 analogs” (NEWPHARMA INTERNATIONAL CORPORATION, priority 1992, dated 1993)", "key": {"[1]": {"test_system": "isolated rat uterus under diestrous condition", "experiment": "B1: effect on isolated uterus of diestrous rat with basal spontaneous contractions (cumulative curves, Krebs solution)", "design": "species or system Wistar rats", "conditions": "basal 5,85", "method": "(B1)- Concentration-response curves on isolated rat uterus under diestrous condition were carried out. Wistar rats weighing 250 g to 300 g were employed. The diestrous phase was detected by a daily vaginal smear. The uterus was dissected out and a portion of a horn was placed in a 10 ml organ bath in a similar way to that described in part A. The bath temperature was maintained at 37°C, bubbled with a mixture of 95 % O2 and 5 % CO2 in a Krebs nutrient solution. The organ was left to stabilize for one hour. The isolated uterus presented basal spontaneous contractions under these experimental conditions. Cumulative concentration-response curves were carried out with the addition of either 100 µl or 300 µl of solutions of either natural prostaglandins or B-407 in concentrations of 10^-10 M to 10^-6 M, each 15 minutes without any washing. Uterine contractions and quantitation were performed as described in (A). (B2)- Concentration-response curves in isolated uterus under diestrous (without any spontaneous contractions) were carried out. Sodium diclofenac was added to De Jalon nutrient solution to a final concentration of 4x10^-6 M. The organ was left to stabilize until the absence of spontaneous contractions. Non-cumulative concentration-response curves were obtained. Recordings of the contractions and their quantitation were performed as described in (A).\nThe frequency and magnitude of the responses were globally evaluated by calculating the total area recorded at a fixed time period as will be further explained. The areas under the curve of the recording paper, over 15 minutes periods, were cut and weighed both in the concentration-response curves and in the potentiating experiments.\nThe calibration was made by weighing a piece of paper which corresponded to a tension of 1 g at the working sensitivity along 2 minutes. Therefore, a relationship of area expressed in g/2 min was obtained and then the weights of the areas of the responses were transformed to unities of area. The results were expressed as the mean ± the standard error of the areas obtained. The statistical evaluation of the differences was carried out either by ANOVA or by Student's-t-test, as appropriate."}, "[2]": {"test_system": "guinea pig isolated trachea", "experiment": "Relaxation of histamine contracted guinea pig tracheal chain in vitro", "design": "species or system guinea pigs", "conditions": "10^-5 M; percentage on the histamine (1x10^-6 M) induced contraction; n = 8; vehicle -7 ± 3", "method": "The effect of B-407 on isolated trachea was evaluated in guinea pigs weighing 700 g. The animals were killed and the trachea was dissected out, transferred to a dish containing Krebs solution and cut transversely between the segments of cartilage, so as to give a number of rings of tracheal muscle. Five rings were tied up together with cotton threads, so as to form a chain, which was then mounted in a 10 ml bath with Krebs solution at 37°C, aerated with a mixture of oxygen (95 %) and carbon dioxide (5 %). The load on the lever was 0.4 g. The organ was left to stabilize for 15 to 30 min.\nEnough quantity (100 µl) of 0.1 mM histamine solution was added to the bath (1x10^-6 M) in order to obtain a contraction of 0.2 g to 0.5 g of tension. After the contraction reached a plateau, 100 µl of ethanol: distilled water (1:1) (vehicle as control) was added to the bath. Eight minutes later, the preparation was relaxed by washing 4 to 6 times. […]\nThe relaxation induced by B-407 was expressed as a percentage on the histamine induced contraction. The average ± standard error of all the determinations were calculated [\"The guinea-pig tracheal chain\"; \"Pharmacological Experiments on Isolated Preparations\". […]"}, "anesthetized rat": {"test_system": "anesthetized rat", "experiment": "Blood pressure and heart rate in anesthetized rat", "assay_type": "in vivo, male Wistar rats", "conditions": "i.v.; for HR (Heart Rate): basal 440,8 ± 9,7; for Δ MBP (Mean Blood Pressure): basal MBP 120,9 ± 4,6, n= 6", "method": "The acute effect of B-407 on the cardiovascular system was studied. After doses of 10 µg/kg, 30 µg/kg, and 100 µg/kg, administered intravenously (i.v.) the arterial blood pressure and heart rate were evaluated on male Wistar rats weighing 300 g to 350 g. Rats were anesthetized with 40 mg/kg, i.p., of sodium pentobarbital. The left jugular vein was cannulated by means of polyethylene tubing to allow the i.v. administration of drugs. The trachea was cannulated to facilitate ventilation and the right carotid artery was cannulated to record blood pressure and heart beat. A dose of 350 UI/kg, i.v., sodium heparin was administered. The catheter of the artery was connected to a pressure transducer attached to a Berger polygraph. The volume of the i.v. administrations was 0.4 ml/kg. The working protocol was as follows:\nA steady-state recording was obtained over a 30 minutes time period. Then a dose of 0.5 µg/kg of noradrenaline followed by 0.5 µg/kg of isoproterenol were administered over 5 to 10 minutes. After 5 min of recording, increasing doses of B-407 were administered every 15 minutes. The mean arterial blood pressure (mm Hg) was obtained by calculating the average of the values of […]. The heart rate (beats/min) was obtained by counting the number of contractions by units of time."}}, "data": [{"compound": "CCCCC(C)(O)C/C=C/[C@H]1[C@H](O)CC(=O)[C@@H]1CCCC/C=C/C(=O)OC", "note": "(mixture of isomers) [B-407, trans-Δ^2-15-deoxy-16-hydroxy-16-methyl PGE1 methyl ester]", "values": [{"measurement": "Area (g of tension/2 min)", "setting": "[1]; 1x10^-6 M", "result": "6,46 g of tension/2 min"}, {"measurement": "Area (g of tension/2 min)", "setting": "[1]; 1x10^-7 M", "result": "7,38 g of tension/2 min"}, {"measurement": "Area (g of tension/2 min)", "setting": "[1]; 1x10^-8 M", "result": "6,88 g of tension/2 min"}, {"measurement": "Area (g of tension/2 min)", "setting": "[1]; 1x10^-9 M", "result": "6,14 g of tension/2 min"}, {"measurement": "% of relaxation", "setting": "[2]", "result": "35 ± 5", "unit": "%"}, {"measurement": "Higher lasting time", "setting": "anesthetized rat; 10 µg/kg", "result": "0,66 min"}, {"measurement": "HR (Heart Rate)", "setting": "anesthetized rat; 10 µg/kg", "result": "430,6 ± 7,2 Beats / min"}, {"measurement": "Δ MBP (Mean Blood Pressure)", "setting": "anesthetized rat; 10 µg/kg", "result": "-11,0 ± 1,3 mm Hg"}, {"measurement": "Higher lasting time", "setting": "anesthetized rat; 30 µg/kg", "result": "2,5 min"}, {"measurement": "HR (Heart Rate)", "setting": "anesthetized rat; 30 µg/kg", "result": "420,7 ± 4,1 Beats / min"}, {"measurement": "Δ MBP (Mean Blood Pressure)", "setting": "anesthetized rat; 30 µg/kg", "result": "-29,8 ± 3,8 mm Hg"}, {"measurement": "Higher lasting time", "setting": "anesthetized rat; 100 µg/kg", "result": "5,5 min"}, {"measurement": "HR (Heart Rate)", "setting": "anesthetized rat; 100 µg/kg", "result": "452,7 ± 16,7 Beats / min"}, {"measurement": "Δ MBP (Mean Blood Pressure)", "setting": "anesthetized rat; 100 µg/kg", "result": "-47,7 ± 3,3 mm Hg"}]}]}
